From PubChem BioAssay AID2060512 (Molecular Pharmacology Branch, DTP, NCI, 2025)

Tested on: 186277-243-T-J2-PDC complex spheroid viability
Test: Anticancer human tumor 186277-243-T-J2-PDC patient-derived colon adenocarcinoma cell line growth inhibition [GQUAD]
Conditions: for IC50: curve of first compound; for viability, T/C: stronger effect = lower value
From the text: DNA G-quadruplex Stabilizer Agents in Combinations in Complex Spheroids
A high-throughput screen of multi-cell type tumor spheroids was designed to identify active combinations of DNA G-quadruplex stabilizer agents and targeted small molecules. Complex spheroids include a stromal component modeled by human endothelial cells (HUVEC) and fibroblasts modeled by human mesenchymal stem cells (MSCs). The concentration ranges selected for each drug and investigational agent were based upon clinically achievable concentrations if the clinical Cmax of the agent was known.
Compounds. The drugs and investigational agents: pidnarulex (CX-5461; NSC782164), APTO-253 (NSC789042), BRACO-19 (NSC847499), peposertib (NSC802822), ceralasertib (NSC780249), elimusertib (NSC800525), camonsertib (NSC841442), AZD-1390 (NSC803789), olaparib (NSC753686), talazoparib (NSC767125), ART-558 (NSC835418), sotorasib (NSC818433), MRTX-1133 (NSC836407), SN-38 (NSC673596), topotecan (NSC609699), etoposide (NSC141540), doxorubicin (NSC123127), gemcitabine (NSC613327), 5-fluorouracil (NSC19893), paclitaxel (NSC125973), vemurafenib (NSC761431), panobinostat (NSC761190), R-306465 (JNJ-16241199; NSC773264), adavosertib (NSC754352), TP-3654 (NSC805149), carboplatin (NSC241240), KSQ-4279 (NSC840948), and staurosporine (NSC755774) were obtained from the National Cancer Institute (NCI) Developmental Therapeutics Program Chemical Repository (34). The FDA-approved anticancer drug set is available from the NCI Developmental Therapeutics Program. […] The stock solutions were prepared in dimethyl sulfoxide (DMSO, Sigma-Aldrich, St. Louis, MO, cat. D2650) at 800-fold the tested concentration and stored at -70 degrees C prior to their use. All drugs and investigational agents were tested over a range starting from a high concentration at or near the clinical Cmax and decreasing in half-log increments. If the clinical Cmax for an agent had not been determined, the highest concentration tested was 10 microM.
2.3 Cell Culture. All cells were maintained in an incubator at 37 degrees C and 5% CO2 with 95% humidity. The PDC lines were cultured according to standard operating procedures established by the NCI PDMR. All PDCs were thawed and cultured in Matrigel-coated flasks prepared with a working solution of 1X Ham's F-12 nutrient mix, without supplementation (Invitrogen, cat. 11765054), 100 U/mL penicillin-streptomycin (Invitrogen, cat. 15140122), and 2.5% Matrigel (Corning Inc., cat. 354248) for the first three passages. The 857933-349-R-J2-PDC line was cultured in 6C/Colon 1B media, which includes advanced DMEM/F-12 (Thermo Fisher Scientific, cat. 12634028), 10 mM HEPES (Thermo Fisher Scientific, cat. 15630080), 1X GlutaMAX supplement (Thermo Fisher Scientific, cat. 35050061), 0.1 mg/mL primocin (InvivoGen, cat. ant-pm-2), 10% defined fetal bovine serum, heat inactivated (HyClone Laboratories Inc., cat. SH30070.03HI), 50% L-WRN conditioned media (ATCC, cat. CRL-3276), 1.25 mM N-Acetyl-L-cysteine (Sigma-Aldrich, cat. A9165), 10 mM nicotinamide (Sigma-Aldrich, cat. N0636), 1X B-27 supplement (Thermo Fisher Scientific, cat. 17504044), 1X N-2 supplement (Thermo Fisher Scientific, cat. 17502048), 10 microM Y-27632 dihydrochloride (Tocris Bioscience, cat. 1254), and 50 ng/mL human EGF recombinant protein (Thermo Fisher Scientific, cat. PHG0311). The 485176-168-R4-J1-PDC line was cultured in Panc media, which includes all 6C/Colon 1B media components plus 100 ng/mL human FGF-10 (Thermo Fisher Scientific, cat. 100-26), 500 nM SB-431542 (Selleckchem, cat. S1067), and gastrin (Tocris, cat. 3006).
[…]

[1] = second compound 0.0316 µM, first compound 0.0316 µM
[2] = second compound 0.0316 µM, first compound 0.316 µM
[3] = second compound 0.1 µM, first compound 0.0316 µM
[4] = second compound 0.1 µM, first compound 0.316 µM
[5] = second compound 0.316 µM, first compound 0.0316 µM
[6] = second compound 0.316 µM, first compound 0.316 µM
[7] = second compound 1 µM, first compound 0.0316 µM
[8] = second compound 1 µM, first compound 0.316 µM
[9] = second compound 3.16 µM, first compound 0.0316 µM
[10] = second compound 3.16 µM, first compound 0.316 µM
[11] = second compound 10 µM, first compound 0.0316 µM
[12] = second compound 10 µM, first compound 0.316 µM
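Further: spheroids exposed to drugs for 7 days.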
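Wherever viability, T/C is given: 100% = DMSO vehicle control viability.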

## CC(C)(O)C1CCC(Nc2ccc3ncc(-c4cccc(C(F)(F)F)c4)n3n2)CC1 (centres undefined) + Cc1[nH]c2ccc(F)cc2c1-c1nc2c3cccnc3c3ncccc3c2[nH]1
Second compound 0.0316 µM
  IC50: 2550 nM
Second compound 0.1 µM
  IC50: 3840 nM
Second compound 0.316 µM
  IC50: 2870 nM
Second compound 1 µM
  IC50: 2750 nM
Second compound 3.16 µM
  IC50: 2450 nM
Second compound 10 µM
  IC50: 2190 nM
[1]
  viability, T/C: 105%
Second compound 0.0316 µM, first compound 0.1 µM
  viability, T/C: 87.1%
[2]
  viability, T/C: 86.5%
Second compound 0.0316 µM, first compound 1 µM
  viability, T/C: 80.9%
Second compound 0.0316 µM, first compound 3.16 µM
  viability, T/C: 42.2%
Second compound 0.0316 µM, first compound 10 µM
  viability, T/C: 29.2%
[3]
  viability, T/C: 100%
Second compound 0.1 µM, first compound 0.1 µM
  viability, T/C: 103%
[4]
  viability, T/C: 78.8%
Second compound 0.1 µM, first compound 1 µM
  viability, T/C: 83.3%
Second compound 0.1 µM, first compound 3.16 µM
  viability, T/C: 49.8%
Second compound 0.1 µM, first compound 10 µM
  viability, T/C: 32.1%
[5]
  viability, T/C: 90%
Second compound 0.316 µM, first compound 0.1 µM
  viability, T/C: 110%
[6]
  viability, T/C: 97.3%
Second compound 0.316 µM, first compound 1 µM
  viability, T/C: 91.8%
Second compound 0.316 µM, first compound 3.16 µM
  viability, T/C: 46.1%
Second compound 0.316 µM, first compound 10 µM
  viability, T/C: 32.6%
[7]
  viability, T/C: 98.8%
Second compound 1 µM, first compound 0.1 µM
  viability, T/C: 97%
[8]
  viability, T/C: 90.5%
Second compound 1 µM, first compound 1 µM
  viability, T/C: 107%
Second compound 1 µM, first compound 3.16 µM
  viability, T/C: 41.7%
Second compound 1 µM, first compound 10 µM
  viability, T/C: 45%
[9]
  viability, T/C: 95.6%
Second compound 3.16 µM, first compound 0.1 µM
  viability, T/C: 115%
[10]
  viability, T/C: 107%
Second compound 3.16 µM, first compound 1 µM
  viability, T/C: 90.9%
Second compound 3.16 µM, first compound 3.16 µM
  viability, T/C: 37.9%
Second compound 3.16 µM, first compound 10 µM
  viability, T/C: 38.6%
[11]
  viability, T/C: 91%
Second compound 10 µM, first compound 0.1 µM
  viability, T/C: 111%
[12]
  viability, T/C: 113%
Second compound 10 µM, first compound 1 µM
  viability, T/C: 87.4%
Second compound 10 µM, first compound 3.16 µM
  viability, T/C: 29.4%
Second compound 10 µM, first compound 10 µM
  viability, T/C: 35.3%

## Cc1[nH]c2ccccc2c1CCNCc1ccc(/C=C/C(=O)NO)cc1 + Cc1[nH]c2ccc(F)cc2c1-c1nc2c3cccnc3c3ncccc3c2[nH]1
Second compound 0.0316 µM
  IC50: 41.3 nM
Second compound 0.1 µM
  IC50: 44.2 nM
Second compound 0.316 µM
  IC50: 47.1 nM
Second compound 1 µM
  IC50: 41.8 nM
Second compound 3.16 µM
  IC50: 40.4 nM
Second compound 10 µM
  IC50: 47.5 nM
Second compound 0.0316 µM, first compound 0.000999 µM
  viability, T/C: 110%
Second compound 0.0316 µM, first compound 0.00316 µM
  viability, T/C: 108%
Second compound 0.0316 µM, first compound 0.00999 µM
  viability, T/C: 104%
[1]
  viability, T/C: 62.1%
Second compound 0.0316 µM, first compound 0.0999 µM
  viability, T/C: 9.83%
[2]
  viability, T/C: 0.44%
Second compound 0.1 µM, first compound 0.000999 µM
  viability, T/C: 115%
Second compound 0.1 µM, first compound 0.00316 µM
  viability, T/C: 105%
Second compound 0.1 µM, first compound 0.00999 µM
  viability, T/C: 90.7%
[3]
  viability, T/C: 69.8%
Second compound 0.1 µM, first compound 0.0999 µM
  viability, T/C: 10.4%
[4]
  viability, T/C: 0.56%
Second compound 0.316 µM, first compound 0.000999 µM
  viability, T/C: 93.3%
Second compound 0.316 µM, first compound 0.00316 µM
  viability, T/C: 101%
Second compound 0.316 µM, first compound 0.00999 µM
  viability, T/C: 97%
[5]
  viability, T/C: 71.2%
Second compound 0.316 µM, first compound 0.0999 µM
  viability, T/C: 9.88%
[6]
  viability, T/C: 1.7%
Second compound 1 µM, first compound 0.000999 µM
  viability, T/C: 90.5%
Second compound 1 µM, first compound 0.00316 µM
  viability, T/C: 107%
Second compound 1 µM, first compound 0.00999 µM
  viability, T/C: 104%
[7]
  viability, T/C: 62.8%
Second compound 1 µM, first compound 0.0999 µM
  viability, T/C: 9.69%
[8]
  viability, T/C: 0.96%
Second compound 3.16 µM, first compound 0.000999 µM
  viability, T/C: 101%
Second compound 3.16 µM, first compound 0.00316 µM
  viability, T/C: 111%
Second compound 3.16 µM, first compound 0.00999 µM
  viability, T/C: 100%
[9]
  viability, T/C: 61.1%
Second compound 3.16 µM, first compound 0.0999 µM
  viability, T/C: 9%
[10]
  viability, T/C: 0.47%
Second compound 10 µM, first compound 0.000999 µM
  viability, T/C: 95%
Second compound 10 µM, first compound 0.00316 µM
  viability, T/C: 98.5%
Second compound 10 µM, first compound 0.00999 µM
  viability, T/C: 99.9%
[11]
  viability, T/C: 71.1%
Second compound 10 µM, first compound 0.0999 µM
  viability, T/C: 11.2%
[12]
  viability, T/C: 1.07%
